# Counter-ions that a name gives are not always drawn. ± gives the standard deviation of the averaged measurements.
# System: HeLa
# Assay: cell viability (CellTiter-Glo) relative to median of lowest-dilution wells of all drugs (fraction); higher = more viable cells
# Experimental: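 HeLa control and CRISPR DDX11 knockout cells were seeded in 384-well plates and incubated for 72 h with each of 64 […] drugs at six concentrations. Viability was read with CellTiter-Glo and normalised to the median of the lowest (6th) dilution wells of all drugs. Two biological replicates (BR1, BR2) are averaged; the concentration unit is not stated.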
# [1] = drug concentration (unit not stated): 0.01, genotype: DDX11 knockout
# [2] = drug concentration (unit not stated): 0.01, genotype: control (DDX11 wild type)
# [3] = drug concentration (unit not stated): 0.04, genotype: DDX11 knockout
# [4] = drug concentration (unit not stated): 0.04, genotype: control (DDX11 wild type)
# [5] = drug concentration (unit not stated): 0.12, genotype: DDX11 knockout
# [6] = drug concentration (unit not stated): 0.12, genotype: control (DDX11 wild type)
# [7] = drug concentration (unit not stated): 0.37, genotype: DDX11 knockout
# [8] = drug concentration (unit not stated): 0.37, genotype: control (DDX11 wild type)
# [9] = drug concentration (unit not stated): 1.11, genotype: DDX11 knockout
# [10] = drug concentration (unit not stated): 1.11, genotype: control (DDX11 wild type)
# [11] = drug concentration (unit not stated): 3.33, genotype: DDX11 knockout
# [12] = drug concentration (unit not stated): 3.33, genotype: control (DDX11 wild type)
# [13] = drug concentration (unit not stated): 10, genotype: DDX11 knockout
# [14] = drug concentration (unit not stated): 10, genotype: control (DDX11 wild type)
SMILES,cell viability [1],cell viability [2],cell viability [3],cell viability [4],cell viability [5],cell viability [6],cell viability [7],cell viability [8],cell viability [9],cell viability [10],cell viability [11],cell viability [12],cell viability [13],cell viability [14]
O=C1c2c(O)ccc(O)c2C(=O)c2c(NCCNCCO)ccc(NCCNCCO)c21 [Mitoxantrone Hydrochloride],0.834 ± 0.17,0.952 ± 0.011,0.556 ± 0.33,0.88 ± 0.18,0.292 ± 0.31,0.858 ± 0.57,0.124 ± 0.13,0.583 ± 0.73,0.0246 ± 0.0088,0.312 ± 0.42,–,–,–,–
CCc1cnn2c(NCc3ccc[n+]([O-])c3)cc(N3CCCC[C@H]3CCO)nc12 [Dinaciclib],0.119 ± 0.011,0.0976 ± 0.048,0.189 ± 0.0066,0.232 ± 0.063,0.182 ± 0.011,0.239 ± 0.068,0.171 ± 0.019,0.264 ± 0.096,0.169 ± 0.0065,0.254 ± 0.097,–,–,–,–
COc1cc2c(cc1O)CCN[C@]21CS[C@@H]2c3c(OC(C)=O)c(C)c4c(c3[C@H](COC1=O)N1[C@@H]2[C@H]2c3c(cc(C)c(OC)c3O)C[C@@H]([C@@H]1O)N2C)OCO4 [Trabectedin (Yondelis)],1.061 ± 0.0098,1.05 ± 0.0085,1.01 ± 0.044,1 ± 0.031,1 ± 0.034,1.02 ± 0.034,0.9874 ± 0.0059,1.02 ± 0.025,0.913 ± 0.14,1.034 ± 0.0075,–,–,–,–
COc1cc([C@@H]2c3cc4c(cc3[C@@H](O[C@@H]3O[C@@H]5CO[C@@H](C)O[C@H]5[C@H](O)[C@H]3O)[C@H]3COC(=O)[C@H]23)OCO4)cc(OC)c1O [Etoposide (VP-16)],–,–,0.993 ± 0.062,0.992 ± 0.036,0.913 ± 0.1,0.985 ± 0.015,0.737 ± 0.18,0.978 ± 0.18,0.477 ± 0.24,0.842 ± 0.39,0.165 ± 0.14,0.35 ± 0.33,0.0411 ± 0.033,0.0423 ± 0.033
CCn1nc(C2CCN(C(=O)CCO)CC2)nc1-c1cnc(N)c(-c2nnc(C(C)(C)C)o2)n1 [AZD8835],–,–,1.08 ± 0.046,1.07 ± 0.014,0.987 ± 0.09,1.05 ± 0.027,0.908 ± 0.098,0.988 ± 0.078,0.876 ± 0.059,0.98 ± 0.12,0.803 ± 0.077,0.996 ± 0.057,0.785 ± 0.052,1.05 ± 0.03
CC[C@]1(O)C[C@@H]2CN(CCc3c([nH]c4ccccc34)[C@@](C(=O)OC)(c3cc4c(cc3OC)N(C)[C@H]3[C@@](O)(C(=O)OC)[C@H](OC(C)=O)[C@]5(CC)C=CCN6CC[C@]43[C@@H]65)C2)C1 [Vinblastine],0.751 ± 0.37,0.802 ± 0.21,0.538 ± 0.36,0.799 ± 0.44,0.374 ± 0.092,0.441 ± 0.2,0.392 ± 0.0058,0.31 ± 0.042,0.3923 ± 0.00082,0.355 ± 0.12,0.401 ± 0.042,0.359 ± 0.089,–,–
CC(C)C[C@H](NC(=O)[C@H](CCc1ccccc1)NC(=O)CN1CCOCC1)C(=O)N[C@@H](Cc1ccccc1)C(=O)N[C@@H](CC(C)C)C(=O)[C@@]1(C)CO1 [Carfilzomib],0.6 ± 0.63,1.11 ± 0.022,0.512 ± 0.7,1.1 ± 0.07,0.414 ± 0.57,1.02 ± 0.14,0.0394 ± 0.035,0.385 ± 0.37,0.00988 ± 0.0031,0.0166 ± 0.0079,–,–,–,–
COc1cc(Nc2ncc3c(n2)-c2ccc(Cl)cc2C(c2c(F)cccc2OC)=NC3)ccc1C(=O)O [Alisertib],1.056 ± 0.0065,1.044 ± 0.0066,0.996 ± 0.016,1.03 ± 0.1,0.752 ± 0.019,0.966 ± 0.34,0.7 ± 0.092,0.844 ± 0.23,0.859 ± 0.029,0.919 ± 0.16,0.781 ± 0.041,0.827 ± 0.12,–,–
CC(C)(C)Cn1c(N)nc2ccc(-c3[nH]c(C(C)(C)C)nc3-c3ccc(F)cc3)nc21,–,–,0.937 ± 0.044,0.991 ± 0.022,0.96 ± 0.11,1.03 ± 0.022,0.942 ± 0.088,0.988 ± 0.15,0.921 ± 0.072,1.02 ± 0.1,0.84 ± 0.03,1.06 ± 0.15,0.737 ± 0.061,1.03 ± 0.25
CN(Cc1cnc2nc(N)nc(N)c2n1)c1ccc(C(=O)N[C@@H](CCC(=O)O)C(=O)O)cc1 [Abitrexate (Methotrexate)],0.864 ± 0.26,0.969 ± 0.64,0.79 ± 0.24,0.723 ± 0.34,0.772 ± 0.21,0.665 ± 0.35,0.725 ± 0.17,0.606 ± 0.33,0.462 ± 0.08,0.58 ± 0.31,–,–,–,–
